# Data from patent US9801901B2, “Alginate oligomers for use in overcoming multidrug resistance in bacteria” (priority 2009, dated 2017).
# Read-outs that look alike come from different tables or passages of the source. Marks after values point to notes of the source that are not given here.
# Tests used:
# [1] = tested on: Acinetobacter baumannii (Egypt, V9); assay: MIC-assay, Mueller-Hinton broth with G-block alginate, 384-well, OD600
# [2] = tested on: V10 (Egypt) Acinetobacter lwoffii; assay: MIC assay, CAMHB with alginate oligomer, no visible growth; assay type: cell-based; conditions: Table 5, V10 MDR Acin. lwoff
# [3] = tested on: V23 1322 Burkholderia cepacia; assay: as above; assay type: cell-based
# [4] = tested on: Pseudomonas aeruginosa (MDR 301, PSA, V2); assay: MIC-assay, Mueller-Hinton broth with G-block alginate, 384-well, OD600; conditions: Pseudomonas aeruginosa, Table 8, V2
# [5] = tested on: MDR Pseudomonas strains; assay: MIC assay of Example 1, summary over the MDR Pseudomonas strains; assay type: cell-based, Pseudomonas aeruginosa
# [6] = tested on: Acinetobacter lwoffii (6056, V22); assay: MIC-assay, Mueller-Hinton broth with G-block alginate, 384-well, OD600
# [7] = tested on: MDR strains of Pseudomonas aeruginosa, Klebsiella pneumoniae, Burkholderia cepacia, Acinetobacter lwoffii, Acinetobacter baumannii and E. coli; assay: MIC assay of Example 2, summary over the strains of Tables 4, 5 and 6; assay type: cell-based; conditions: Example 2, Tables 4, 5 and 6
# [8] = tested on: Acinetobacter baumannii MDR ACB from Libya (V4); assay: MIC assay, CAMHB with alginate oligomer, no visible growth; assay type: cell-based
# Excerpt: The study described in Example 1 was repeated with the following strains of bacteria and antibiotics as detailed in Tables 4, 5 and 6.
# (§1) The study described in Example 1 was repeated with the following strains of Acinetobacter baumannii, antibiotics and M-block alginate oligomer in place of OligoG CF-5/20 as detailed in Table 7. The M-block oligomer is 100% M with a DPn of 15 to 18,
# [9] = tested on: V11 5702 (Wales) E. coli; assay: as above; assay type: cell-based; conditions: Table 5, V11 MDR E.coli
# [10] = tested on: Pseudomonas aeruginosa, Klebsiella pneumoniae and Acinetobacter baumannii strains; assay: MIC assay of Example 1, summary over the strains; assay type: cell-based; conditions: Example 1, Tables 1 and 2, all strains
# [11] = tested on: V19 non MDR Acinetobacter baumannii; assay: MIC assay, CAMHB with M-block alginate oligomer, no visible growth; assay type: cell-based; conditions: Table 7, V19 non MDR Acin. baum
# Excerpt: as §1
# [12] = tested on: PA01 Pseudomonas aeruginosa ATCC 15692; assay: MIC assay, two-fold antibiotic dilutions in CAMHB with alginate oligomer, no visible growth; assay type: cell-based; conditions: PA01
# [13] = tested on: Klebsiella pneumoniae KP05 506 from India (V3); assay: MIC assay, CAMHB with alginate oligomer, no visible growth; assay type: cell-based; conditions: for MIC: V3 KP05 506
# [14] = tested on: Acinetobacter lwoffii (Egypt, V10); assay: MIC-assay, Mueller-Hinton broth with G-block alginate, 384-well, OD600
# [15] = Table 9, G-block (OligoCF-5/20) 0%
# [16] = Table 9, G-block (OligoCF-5/20) 2%
# [17] = Table 9, G-block (OligoCF-5/20) 6%
# [18] = Table 9, G-block (OligoCF-5/20) 10%
structure (smiles),measurement,setting,value
CC[C@H]1OC(=O)[C@H](C)[C@@H](O[C@H]2C[C@@](C)(OC)[C@@H](O)[C@H](C)O2)[C@H](C)[C@@H](O[C@@H]2O[C@H](C)C[C@H](N(C)C)[C@H]2O)[C@](C)(O)C[C@@H](C)CN(C)[C@H](C)[C@@H](O)[C@]1(C)O [Azithromycin],MIC,[1]; [15],4 µg/mL
same,MIC,[1]; [16],< 1 µg/mL
same,MIC,[1]; [17],< 1 µg/mL
same,MIC,[1]; [18],< 1 µg/mL
same,MIC,"[2]; Acinetobacter lwoffii, OligoCF-5/20 0G, read-out: MIC",< 0.25 µg/mL
same,MIC,[2]; OligoCF-5/20 +2% G,<0.25 µg/mL
same,MIC,[2]; OligoCF-5/20 +6% G,<0.25 µg/mL
same,MIC,[2]; OligoCF-5/20 +10% G,<0.25 µg/mL
same,MIC,"[3]; Burkholderia cepacia, Table 5, V23 MDR Burk cep, OligoCF-5/20 0G, read-out: MIC",128 µg/mL
same,MIC,"[3]; Burkholderia cepacia, Table 6, V23, Experiment 1 (18-03-10), OligoCF-5/20 0G, read-out: MIC",64 µg/mL
same,MIC,"[3]; Burkholderia cepacia, Table 6, V23, Experiment 2 (18-03-10), OligoCF-5/20 0G, read-out: MIC",32 µg/mL
same,MIC,"[3]; Burkholderia cepacia, Table 6, V23, Experiment 3 (19-03-10), OligoCF-5/20 0G, read-out: MIC",16 µg/mL
same,MIC,"[3]; Table 5, V23 MDR Burk cep, OligoCF-5/20 +2% G",64^† μg/ml
same,MIC,"[3]; Table 5, V23 MDR Burk cep, OligoCF-5/20 +6% G",16^† μg/ml
same,MIC,"[3]; Table 5, V23 MDR Burk cep, OligoCF-5/20 +10% G",4 µg/mL
same,MIC,"[3]; Table 6, V23, Experiment 1 (18-03-10), OligoCF-5/20 +2% G",64 µg/mL
same,MIC,"[3]; Table 6, V23, Experiment 1 (18-03-10), OligoCF-5/20 +6% G",64 µg/mL
same,MIC,"[3]; Table 6, V23, Experiment 1 (18-03-10), OligoCF-5/20 +10% G",32^† μg/ml
same,MIC,"[3]; Table 6, V23, Experiment 2 (18-03-10), OligoCF-5/20 +2% G",32 µg/mL
same,MIC,"[3]; Table 6, V23, Experiment 2 (18-03-10), OligoCF-5/20 +6% G",16^† μg/ml
same,MIC,"[3]; Table 6, V23, Experiment 2 (18-03-10), OligoCF-5/20 +10% G",16^† μg/ml
same,MIC,"[3]; Table 6, V23, Experiment 3 (19-03-10), OligoCF-5/20 +2% G",16 µg/mL
same,MIC,"[3]; Table 6, V23, Experiment 3 (19-03-10), OligoCF-5/20 +6% G",16 µg/mL
same,MIC,"[3]; Table 6, V23, Experiment 3 (19-03-10), OligoCF-5/20 +10% G",16 µg/mL
same,MIC,[4]; G-block (OligoCF-5/20) 2%,64 µg/mL
same,MIC,[4]; G-block (OligoCF-5/20) 6%,64 µg/mL
same,MIC,[4]; G-block (OligoCF-5/20) 10%,32 µg/mL
same,effectiveness when used in combination with the alginate oligomers,[5],more effective
same,MIC,[6]; [15],< 2 µg/mL
same,MIC,[6]; [16],< 2 µg/mL
same,MIC,[6]; [17],< 2 µg/mL
same,MIC,[6]; [18],< 2 µg/mL
same,change of MIC with increasing amounts of OligoG CF-5/20,[7],decreasing MICs
same,MIC,"[8]; Acinetobacter baumannii, Table 1, V4 ACB (Libya), OligoCF-5/20 0G, read-out: MIC",8 µg/mL
same,MIC,"[8]; Acinetobacter baumannii, Table 1, V4 ACB (Libya), OligoCF-5/20 +2% G, read-out: MIC",2 µg/mL
same,MIC,"[8]; Acinetobacter baumannii, Table 1, V4 ACB (Libya), OligoCF-5/20 +6% G, read-out: MIC",< 0.25 µg/mL
same,MIC,"[8]; Acinetobacter baumannii, Table 1, V4 ACB (Libya), OligoCF-5/20 +10% G, read-out: MIC",< 0.25 µg/mL
same,MIC,"[8]; Acinetobacter baumannii, Table 7, V4 MDR Acin baum (Libya), M-block oligomer 0M, read-out: MIC",8 µg/mL
same,MIC,"[8]; Acinetobacter baumannii, Table 7, V4 MDR Acin baum (Libya), M-block oligomer +2% M, read-out: MIC",8 µg/mL
same,MIC,"[8]; Acinetobacter baumannii, Table 7, V4 MDR Acin baum (Libya), M-block oligomer +6% M, read-out: MIC",8 µg/mL
same,MIC,"[8]; Acinetobacter baumannii, Table 7, V4 MDR Acin baum (Libya), M-block oligomer +10% M, read-out: MIC",2 µg/mL
same,effect in combination with alginate oligomers,"[8]; Example 1, Acinetobacter baumannii isolate",more positive effect
same,MIC,"[8]; Table 2, V4 ACB (Libya), OligoCF-5/20 0G",8^†
same,MIC,"[8]; Table 2, V4 ACB (Libya), OligoCF-5/20 +2% G",2^†
same,MIC,"[8]; Table 2, V4 ACB (Libya), OligoCF-5/20 +6% G",<0.25^†
same,MIC,"[8]; Table 2, V4 ACB (Libya), OligoCF-5/20 +10% G",<0.25†
same,MIC,"[9]; Escherichia coli, OligoCF-5/20 0G, read-out: MIC",32 µg/mL
same,MIC,[9]; OligoCF-5/20 +2% G,16^† μg/ml
same,MIC,[9]; OligoCF-5/20 +6% G,16^† μg/ml
same,MIC,[9]; OligoCF-5/20 +10% G,32 µg/mL
same,change of MIC with increasing amounts of OligoG CF-5/20,[10],decreasing MICs
same,MIC,[11]; M-block oligomer 0M,32 µg/mL
same,MIC,[11]; M-block oligomer +2% M,16 µg/mL
same,MIC,[11]; M-block oligomer +6% M,16 µg/mL
same,MIC,[11]; M-block oligomer +10% M,16 µg/mL
same,MIC,"[12]; Pseudomonas aeruginosa, ATCC15692, Table 1, OligoCF-5/20 0G, read-out: MIC",128 µg/mL
same,MIC,"[12]; Pseudomonas aeruginosa, ATCC15692, Table 1, OligoCF-5/20 +2% G, read-out: MIC",64 µg/mL
same,MIC,"[12]; Pseudomonas aeruginosa, ATCC15692, Table 1, OligoCF-5/20 +6% G, read-out: MIC",16 µg/mL
same,MIC,"[12]; Pseudomonas aeruginosa, ATCC15692, Table 1, OligoCF-5/20 +10% G, read-out: MIC",4 µg/mL
same,MIC,"[12]; Table 2, OligoCF-5/20 0G",128^†
same,MIC,"[12]; Table 2, OligoCF-5/20 +2% G",64^†
same,MIC,"[12]; Table 2, OligoCF-5/20 +6% G",16^†
same,MIC,"[12]; Table 2, OligoCF-5/20 +10% G",4^†
same,effectiveness in conjunction with alginate oligomers,"[13]; Example 1, KP05 506",more effective
same,MIC,"[13]; Klebsiella pneumoniae, Table 1, OligoCF-5/20 0G, read-out: MIC",32 µg/mL
same,MIC,"[13]; Klebsiella pneumoniae, Table 1, OligoCF-5/20 +2% G, read-out: MIC",16 µg/mL
same,MIC,"[13]; Klebsiella pneumoniae, Table 1, OligoCF-5/20 +6% G, read-out: MIC",16 µg/mL
same,MIC,"[13]; Klebsiella pneumoniae, Table 1, OligoCF-5/20 +10% G, read-out: MIC",8 µg/mL
same,MIC,"[13]; Table 2, OligoCF-5/20 0G",32^†
same,MIC,"[13]; Table 2, OligoCF-5/20 +2% G",16^†
same,MIC,"[13]; Table 2, OligoCF-5/20 +6% G",16^†
same,MIC,"[13]; Table 2, OligoCF-5/20 +10% G",8^†
same,MIC,[14]; [15],< 1 µg/mL
same,MIC,[14]; [16],< 1 µg/mL
same,MIC,[14]; [17],< 1 µg/mL
same,MIC,[14]; [18],< 1 µg/mL
